Columns and labels:
[1] = tested on: PD1-ss+10aa/Gaussia Luciferase; test: Dox-Induced PD1-ss-Gluc Assay; format: cell-based; details: 24 hr Dox induction; 293FRT/TO cells; mean; read-out: 24 hr Dox Inducible PD1ssGluc 293FRT/TO: Mean IC50
Summary of the method: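 Doxycycline-induced expression of a PD1-ss+10aa/Gaussia luciferase reporter is measured in stable Flp-In 293 T-REx cells. Compound dilutions containing doxycycline are added one day after plating and incubated at 37 °C, 5% CO2. Values for unassigned stereocentres refer to stereoisomer mixtures.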

[2] = tested on: IL-2-FL/Gaussia Luciferase; test: Dox Induced IL2-FL-Gluc Assay; format: cell-based; details: for IC50: 24 hr Dox induction, 293FRT/TO cells, mean, read-out: 24 hr Dox Inducible IL2FLGluc 293FRT/TO: Mean IC50; for 24 hr Dox Inducible IL2FLGluc 293FRT/TO: IL2/PD1: ratio of IL2FLGluc IC50 to PD1ssGluc IC50, '<=>' given where both are I.A.
Summary of the method: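 Flp-In 293 T-REx cells stably carrying doxycycline-inducible full-length IL-2 (aa 1-153) fused at its C-terminus to Gaussia luciferase, selected with hygromycin and blasticidin. Cells were plated the day before, then treated with compounds in DMSO/media containing doxycycline at 37° C, 5% CO2.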

[3] = Liver Microsome Stability Assay (monkey); details: monkey liver microsomes, with NADPH, 1.0 uM compound
Method: (§1) Stability of a compound was assessed in the presence of liver microsomes from various sources—mouse, rat, monkey and human liver microsomes. 1.0 uM compound, 0.4% DMSO in 0.1 M Potassium Phosphate with 1.0 mg/mL liver microsomes, were incubated at 37° C. with or without 1 mM NADPH. The samples were quenched at 0, and 30 minutes.

[4] = Liver Microsome Stability Assay (mouse); details: mouse liver microsomes, with NADPH, 1.0 uM compound
Method: as §1

[5] = tested on: HER3-ss+4aa/Gaussia Luciferase; test: Dox-Induced Her3-ss-Gluc Assay; format: cell-based; details: 24 hr Dox induction; 293FRT/TO cells; mean; read-out: 24 hr Dox Inducible Her3(ss + 4)Gluc 293FRT/TO: Mean IC50
Summary of the method: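 Stable Flp-In 293 T-REx line expressing Gaussia luciferase fused to the HER3 signal sequence plus 4 amino acids under tetracycline-regulated (T-REx) control. Cells plated the day before, then treated with compound dilutions in DMSO/media containing doxycycline and incubated at 37° C., 5% CO2.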

[6] = Liver Microsome Stability Assay (rat); details: rat liver microsomes, with NADPH, 1.0 uM compound
Method: as §1

[7] = tested on: multiple myeloma cell line U266B1; test: U266 Cell Viability Assay; format: cell-based, human; details: Homo sapiens, U-266, 48 h, U266B1 cells, Celltiter-Glo
Summary of the method: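 Cells grown in RPMI 1640 with 10% FBS, 2 mM glutamine and penicillin/streptomycin were exposed to compound dilutions in DMSO/media for 48 hours at 37° C., 5% CO2. Viability was read by CellTiter-Glo luminescence. Undefined stereocentres mean data for stereoisomer mixtures.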

[8] = Liver Microsome Stability Assay (human); details: human liver microsomes, with NADPH, 1.0 uM compound
Method: as §1

[9] = tested on: multiple myeloma cell line NCI-H929; test: H929 Cell Viability Assay; format: cell-based, human; details: Homo sapiens, NCI-H929, 48 h, NCI-H929 cells, Celltiter-Glo
Summary of the method: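 NCI-H929 cells, resuspended in RPMI 1640 with 10% FBS and 2 mM glutamine, were treated with compound dilutions in DMSO/media and incubated 48 hours at 37° C, 5% CO2. Viability was read by CellTiter-Glo luminescence. Compounds drawn without stereochemistry were tested as stereoisomer mixtures.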

[10] = tested on: TNFα-FL/Gaussia Luciferase; test: Dox Induced TNFα-FL-Gluc Assay; format: cell-based; details: for IC50: 24 hr Dox induction, 293FRT/TO cells, mean, read-out: 24 hr Dox Inducible TNFaFLGluc 293FRT/TO: Mean IC50; for 24 hr Dox Inducible TNFaFLGluc 293FRT/TO: TNF/PD1: ratio of TNFaFLGluc IC50 to PD1ssGluc IC50, '<=>' given where both are I.A.
Summary of the method: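 Flp-In 293 T-REx cells stably expressing full-length TNFα (aa 1-233) fused at its C-terminus to Gaussia luciferase under tetracycline-regulated control were plated the day before assay. Compound dilutions in DMSO/media containing doxycycline were added and incubated at 37 °C, 5% CO2. Unspecified stereochemistry denotes stereoisomer mixtures.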

Row | IC50 [1] [nM] | IC50 [2] [nM] | Liver Microsome Stability (Multiple Species): Monkey - % Remaining after 30 min w/NADPH [3] [%] | Liver Microsome Stability (Multiple Species): Mouse - % Remaining after 30 min w/NADPH [4] [%] | IC50 [5] [nM] | Liver Microsome Stability (Multiple Species): Rat - % Remaining after 30 min w/NADPH [6] [%] | EC50 [7] [nM] | Liver Microsome Stability (Multiple Species): Human - % Remaining after 30 min w/NADPH [8] [%] | EC50 [9] [nM] | IC50 [10] [nM] | SMILES | 24 hr Dox Inducible IL2FLGluc 293FRT/TO: IL2/PD1 [2] | 24 hr Dox Inducible TNFaFLGluc 293FRT/TO: TNF/PD1 [10]
1 | 64 | 95.2 | 0.32 | 0.72 | 97 | 0.23 | > 25000 | 0.02 | 2970 | 704 | Cc1ccnc(N2CCC[C@@H]2c2csc(NC(=O)c3cccn3Cc3ccncc3)n2)c1 [Compound E63, (R)-N-(4-(1-(4-methylpyridin-2-yl)pyrrolidin-2-yl)thiazol-2-yl)-1-(pyridin-4-ylmethyl)-1H-pyrrole-2-carboxamide] | 1.5 | 11
2 | 70.3 | 70.5 | 7.11 | 0.21 | 106 | 0.16 | > 25000 | 6.7 | 3100 | 377 | Cc1cccnc1N1CCC[C@@H]1c1csc(NC(=O)c2cccn2Cc2ccncc2)n1 [Compound E64, (R)-N-(4-(1-(3-methylpyridin-2-yl)pyrrolidin-2-yl)thiazol-2-yl)-1-(pyridin-4-ylmethyl)-1H-pyrrole-2-carboxamide] | 1 | 5.37
3 | 5.5 | 16.4 | 0.13 | 0.33 | 14.4 | 2.87 | > 25000 | 0.33 | 142 | 71 | CCc1ccc(N2CCC[C@@H]2c2csc(NC(=O)c3cccn3Cc3ccncc3)n2)nc1 [Compound E65, (R)-N-(4-(1-(5-ethylpyridin-2-yl)pyrrolidin-2-yl)thiazol-2-yl)-1-(pyridin-4-ylmethyl)-1H-pyrrole-2-carboxamide] | 3 | 12.9
